Data on six molecules can be found in patent publication US3969530A, “4-Hydroxy-3,5-di-alkyl-phenyl-propionic acid composition suitable as lipid lowering and anti-diabetic agents” (Hoechst Aktiengesellschaft, priority 1972, dated 1976).

The subject of one data set is serum lipid values. Kind of data set: Reduction of serum lipid values in normolipemic rats (Table 1). The format is in vivo, male rats. The following applies: 8 doses; for Change in percentage of serum triglyceride, column B / Change in percentage of serum cholesterol, column B: B: referred to untreated control group; for Change in percentage of serum cholesterol, column A / Change in percentage of serum triglyceride, column A: A: referred to the initial value of the treated group. As to the method:
1. Male rats having a normal serum lipid content were being treated for eight days with different daily doses mentioned in Table 1. The values given in that Table stand for a change in the serum concentrations of certain lipid classes.
The doses were administered per os by means of an esophagal sound. Generally, prior to and after the treatment, blood samples were taken and the concentration of cholesterol in the serum was determined according to the method of Lauber and Richterich and that of triglycerides according to the method of Eggstein and Kreutz. In the examples of the following Table 1, the changes in the serum lipid values due to the treatment with the substances of the invention are defined as follows:
a. The changes in percent in the final value of the treated group, referred to the initial value of the treated group, the initial value being 100 per cent, and
b. the change in the final value of the treated group, referred to the final value of an accompanying untreated control group, the untreated group's value being defined as 100 %. Thus, the value given in columns A is the change in percentage referred to the initial value, the value given in columns B is the change in percentage of the treated group, referred to the untreated control group.

The subject of data set [1] is blood sugar level. The data set is described as follows: Tolerance test with oral glucose in fasted male rats. Type of data set: in vivo. The procedure: (§1) The hypoglycemic activity had been established as follows, the blood sugar level having been determined by means of an autoanalyzer:
2. In the tolerance test with glucose doses administered per os to male rats that had fasted for 22 hours and that were administered 19 and 3 hours before the glucose administration (1g/kg) per os 100 mg/kg of the test preparation, 4-hydroxy-3,5-di-t.-butyl-phenyl-propionic acid n-octadecyl ester caused a lowering of the blood sugar level by -21% 3 hours after being fed with glucose.

The test system of data set [2] is blood sugar level. Kind of data set: Blood sugar level in male rats fed fructose doses. The format is in vivo. The following applies: 100 mg/kg/day, 3 days pretreatment, 24 hours after the last administration; fructose doses per os. The procedure:
as §1
In the case of male rats having been feed fructose doses per os and pretreated for 3 days with 100 mg/kg/day of the same compound, the blood sugar level was lowered by -17% 24 hours after the last administration.

A further data set is described as follows: in vivo. The following applies: mouse, po, male mice.
For data set [3], the system named is blood sugar level. Kind of data set: Blood sugar level in alloxan-diabetic male rats. The format is in vivo. To be noted: 100 mg/kg/day per os, 8 days, 20 hours after the last administration, vs untreated group; insulin-substituted. As to the method: as §1
1. On alloxan-diabetic male rats substituted with insulin before the beginning of the test, that were offered food ad libitum, 100 mg/kg/day of 4-hydroxy-3,5-di-t.-butyl-phenylpropionic acid n-octadecyl ester administered per os once a day during 8 successive days lowered the blood sugar level 20 hours after the last administration by -18% as compared with an untreated group.

Data set [4] deals with serum lipid concentration. Kind of data set: Dietetic-medicamentous hyperlipemia (hypercholesteremia) of male rats (Table 2). To be noted: 100 mg/kg/day, 8 doses, esophagal sound; hyperlipemic diet. The format is in vivo. The source says:
2. Dietetic-medicamentous hypercholesteremia of male rats
All the animals were fed with a diet food containing 2% of cholesterol, 2% of sodium cholate, 0.3% of methyl-thio-uracil, 20% of coco fat and 44% of cane sugar. The serum lipid concentration of the animals treated with the cited compounds was compared to that of an untreated control group being on the same diet which causes the serum cholesteral concentration to rise within one week to about 10 times the initial value, that of the serum triglycerides to 3 times and that of the phospholipids in the serum to 4 times the initial value. The lipid phosphorus was determined according to the method of Messrs. Boehringer Mannheim W. Germany. At the same time as the diet was offered the cited compounds were administered once a day to groups of rats, each containing 10 animals, over a period of 8 days by means of an esophagal sound. The change in percentage in the serum lipid concentration as compared to the control group (diet without active substance) is indicated in Table 2.

Consider `CCCCOC(=O)CCc1cc(C(C)(C)C)c(O)c(C(C)(C)C)c1` [Example 6, 4-hydroxy-3,5-di-t.-butylphenyl-propionic acid-n-butyl ester], for which, in the data set with serum lipid values (10 mg/kg/day p.o.), the “Change in percentage of serum triglyceride, column B” value is -17%. Further, in the data set on serum lipid values (30 mg/kg/day p.o.), the “Change in percentage of serum triglyceride, column B” value is -27%. Also, in the data set on serum lipid values (100 mg/kg/day p.o.), the “Change in percentage of serum cholesterol, column A” value is recorded as -10%; the “Change in percentage of serum triglyceride, column A” value was -54%; the “Change in percentage of serum triglyceride, column B” value was -58%.

By LD50 is commonly meant the dose at which mortality reaches 50%. As for `CCCCCCCCCCCCCCCCCCOC(=O)CCc1cc(C(C)(C)C)c(O)c(C(C)(C)C)c1` [Example 3, 4-hydroxy-3,5-di-t.-butyl-phenyl-propionic acid-n-octadecyl ester], the “Change in percentage of serum triglyceride, column B” value with serum lipid values (30 mg/kg/day p.o.) is on record as -25%; with serum lipid values (100 mg/kg/day p.o.), -16%. For the same molecule, in the data set with serum lipid values (100 mg/kg/day p.o.), the “Change in percentage of serum triglyceride, column A” value is listed as -33%. Besides, the “lowering of the blood sugar level” value with blood sugar level [1] (100 mg/kg per os 19 and 3 hours before glucose (1g/kg), 3 hours after glucose, fasted 22 hours) is -21%; in the data set on blood sugar level [2] it was -17%; in the data set with blood sugar level [3], -18%. Moreover, in the data set on blood sugar level [1] (100 mg/kg per os, comparison preparation phenformin), the “lowering of the blood sugar level compared with phenformin” value is recorded as “in the same order of magnitude as that obtained with the comparison preparation phenformin”. Moreover, in “in vivo”, the LD50 was determined as 8000 mg/kg.

With `CC(C)(C)c1cc(CCC(=O)O)cc(C(C)(C)C)c1O` [Example 2, 4-hydroxy-3,5-di-t.-butyl-phenyl-propionic acid], in the data set on serum lipid values (10 mg/kg/day p.o.), the “Change in percentage of serum triglyceride, column A” value is reported as -21% and the “Change in percentage of serum triglyceride, column B” value was -26%. For the same molecule, in the data set on serum lipid values (30 mg/kg/day p.o.), the “Change in percentage of serum triglyceride, column A” value is reported as -23% and the “Change in percentage of serum triglyceride, column B” value is reported as -38%. For the same molecule, in the data set on serum lipid values (100 mg/kg/day p.o.), the “Change in percentage of serum triglyceride, column A” value was -32%; the “Change in percentage of serum cholesterol, column B” value is -12%; the “Change in percentage of serum triglyceride, column B” value was -38%.

For `COC(=O)CCc1cc(C(C)(C)C)c(O)c(C(C)(C)C)c1` [Example 5, 4-hydroxy-3,5-di-t.-butylphenyl-propionic acid methyl ester], the “Change in percentage of serum triglyceride, column B” value in the data set on serum lipid values (10 mg/kg/day p.o.) is listed as -3%. The “Change in percentage of serum triglyceride, column B” value with serum lipid values (30 mg/kg/day p.o.) was -42%. Besides, in the data set with serum lipid values (100 mg/kg/day p.o.), the “Change in percentage of serum cholesterol, column A” value is listed as -3%; the “Change in percentage of serum triglyceride, column A” value is -60%; the “Change in percentage of serum triglyceride, column B” value is reported as -71%.

For `CCOC(=O)C(C)(C)Oc1ccc(Cl)cc1` [Clofibrat, reference compound], the “Change in percentage of serum cholesterol referred to the untreated group” value in data set [4] is 0%. For the same molecule, in the data set on serum lipid values (30 mg/kg/day p.o.), the “Change in percentage of serum cholesterol, column A” value is given as -7%; the “Change in percentage of serum triglyceride, column A” value is on record as “+4%”; the “Change in percentage of serum cholesterol, column B” value is on record as -7%; the “Change in percentage of serum triglyceride, column B” value is -13%. In addition, the LD50 in “in vivo” lay within 2000 to 2500 mg/kg.

Regarding `CC(C)(C)c1cc(CCC(=O)OCC(COC(=O)CCc2cc(C(C)(C)C)c(O)c(C(C)(C)C)c2)(COC(=O)CCc2cc(C(C)(C)C)c(O)c(C(C)(C)C)c2)COC(=O)CCc2cc(C(C)(C)C)c(O)c(C(C)(C)C)c2)cc(C(C)(C)C)c1O` [Example 7, Tetra-(4-hydroxy-3,5-di-t.-butylphenyl-propionic acid)-pentaerythritol ester], the “Change in percentage of serum triglyceride, column B” value in the data set on serum lipid values (30 mg/kg/day p.o.) is given as -27%. In addition, in the data set with serum lipid values (100 mg/kg/day p.o.), the “Change in percentage of serum cholesterol, column A” value is on record as -5%; the “Change in percentage of serum cholesterol, column B” value is -7%; the “Change in percentage of serum triglyceride, column B” value is reported as -17%.
